# Source: patent US11661426B2, “Imidazole-containing inhibitors of ALK2 kinase” (BioCryst Pharmaceuticals, Inc., priority 2017, dated 2023)
# Biological target: ALK2 (Homo sapiens (Human), UniProt Q04771)
# Assay: ALK2 inhibition, LanthaScreen Eu Kinase Binding Assay (ThermoFisher Scientific / Life Technologies)
# Conditions: read-out: Measured Ki (IC50) Value for Compounds: IC50
# Procedure: Biochemical assays to measure the inhibitory effects of the compounds were performed by ThermoFisher Scientific (Life Technologies). ALK2 inhibition was tested using LanthaScreen™ Eu Kinase Binding Assay screening protocol.
# Sequence of ALK2 (Q04771 21-509): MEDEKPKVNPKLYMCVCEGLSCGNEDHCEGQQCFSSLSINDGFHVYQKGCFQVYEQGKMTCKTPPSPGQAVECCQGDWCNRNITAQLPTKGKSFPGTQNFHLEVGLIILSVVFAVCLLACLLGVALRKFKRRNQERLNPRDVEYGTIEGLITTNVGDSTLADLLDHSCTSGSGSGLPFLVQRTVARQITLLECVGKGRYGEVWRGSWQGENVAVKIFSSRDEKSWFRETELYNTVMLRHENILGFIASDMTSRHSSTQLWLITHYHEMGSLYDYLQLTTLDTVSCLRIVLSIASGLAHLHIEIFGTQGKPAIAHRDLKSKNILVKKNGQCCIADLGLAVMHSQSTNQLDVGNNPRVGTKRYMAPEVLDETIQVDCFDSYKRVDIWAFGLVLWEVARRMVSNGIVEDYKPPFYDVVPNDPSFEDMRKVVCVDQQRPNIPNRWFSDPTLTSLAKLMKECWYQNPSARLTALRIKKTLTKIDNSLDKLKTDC
row,Compound,IC50
1,"COc1cc(-n2cnc(Nc3nc(N4CCC[C@H]4CO)c4ccn(C(C)C)c4n3)c2)cc(OC)c1OC [Compound 472c, (S)-(1-(7-isopropyl-2-((1-(3,4,5-trimethoxyphenyl)-1H-imidazol-4-yl)amino)-7H-pyrrolo[2,3-d]pyrimidin-4-yl)pyrrolidin-2-yl)methanol]",< 100 nM
2,"Cc1cc(Cl)cc(-c2cnc(Nc3nc(N4CCC[C@H]4CO)nn4cccc34)s2)c1 [Compound 475c, (S)-(1-(4-((5-(3-chloro-5-methylphenyl)thiazol-2-yl)amino)pyrrolo[2,1-f][1,2,4]triazin-2-yl)pyrrolidin-2-yl)methanol]",> 1000 nM
3,"COc1cc(-c2cnc(Nc3nc(N4CCC[C@H]4CO)c4cccn4n3)s2)cc(OC)c1OC [Compound 476a, (S)-(1-(2-((5-(3,4,5-trimethoxyphenyl)thiazol-2-yl)amino)pyrrolo[2,1-f][1,2,4]triazin-4-yl)pyrrolidin-2-yl)methanol]",< 100 nM

# Second part, the compound after the results:
row,IC50,Compound
1,< 100 nM,"OC[C@@H]1CCCN1c1nc(Nc2cn([C@H]3CC[C@H](CO)CC3)cn2)c2cccn2n1 [Compound 474e, ((S)-1-(4-((1-((trans)-4-(hydroxymethyl)cyclohexyl)-1H-imidazol-4-yl)amino)pyrrolo[2,1-f][1,2,4]triazin-2-yl)pyrrolidin-2-yl)methanol]"
2,< 100 nM,"(R)-(1-(5-((1-(3,4,5-trimethoxyphenyl)-1H-imidazol-4-yl)amino)thiazolo[5,4-d]pyrimidin-7-yl)pyrrolidin-2-yl)methanol [Compound 323b]"
